Patent publication US20240066152A1, “CONTRAST AGENT FOR DETECTING CARTILAGE DAMAGE AND METHOD AND PROGRAM FOR EXAMINING CARTILAGE DAMAGE USING SAID CONTRAST AGENT” (NATIONAL UNIVERSITY CORPORATION HOKKAIDO UNIVERSITY, priority 2020, published 2024)

Tested on: articular cartilage of the rabbit knee joint (both femoral condyles), ACLT model
Assay: MRI evaluation of articular cartilage damage in the anterior cruciate ligament transection (ACLT) model using ^17O-labeled water
Assay type: in vivo, Japanese white rabbits
Method: An ACLT model was created using 14-week-old male Japanese white rabbits to induce cartilage damage in the knee joint. The rabbits were anesthetized intravenously with pentobarbital (30 mg/kg) and ketamine (50 mg/kg), followed by inhalation anesthesia with isoflurane (1 to 4%) for maintenance anesthesia. The anterior surface of the knee joint on the operative side was shaved, was disinfected with povidone-iodine, and then an analgesic (buprenorphine 0.02 mg/kg) was subcutaneously administered by injection. Skin incision of about 5 cm was placed on the medial side of the patella, and the joint capsule was incised in a similar position. The patella was dislocated laterally, and the knee joint was deeply flexed to expose the anterior cruciate ligament of the femoral intercondylar part, which was separated using a No. 11 scalpel. After washing the inside of the joint with a physiological saline solution, the joint capsule and the skin were sutured using 3-0 nylon thread. Postoperatively, euthanasia was performed if wound infection was observed or in the case of an inability to stand.
It has been reported that in the ACLT model, degeneration of cartilage surface begins at 4 weeks postoperatively and occurs in the entire cartilage layer from 8 weeks postoperatively (Makoto Yoshioka et al. Characterization of a model of osteoarthritis in the rabbit knee. Osteoarthritis and Cartilage, 1996, 4 (2): 87-98), and thus five rabbits were slaughtered and euthanized with pentobarbital (200 mg/kg) each at 4 weeks and 8 weeks postoperatively, and cartilage damage was evaluated by MRI and macroscopically and histologically.
MRI Imaging Using a 3T-MRI apparatus (MAGNETOM Prisma, Siemens), imaging of the rabbit knee joint on the operative side was performed. The affected rabbit limb was disarticulated at the thigh and was fixed at the knee joint extension to avoid the influence of body movement during imaging. A 24G Surflo needle was inserted from the anterior surface of the knee joint through the patellar tendon and was indwelled in the joint. […]

Substance: ^17O-labeled water
- change over time in ^17O concentration in ROI 1 and ROI 2 (damaged cartilage region) (immediately after administration (fourth imaging), calculated from average T2-weighted signal values in each ROI, 4 weeks postoperatively): showed an increase in the ^17O concentration
- ^17O concentration (^17O map calculated from signal values of T2-weighted image) (representative case 4 weeks postoperatively, about 11 minutes after administration (sixth imaging), 0.5 ml saline containing 20-mol % ^17O-labeled water into knee joint of disarticulated limb): higher in the region where cartilage damage was observed
- change over time in ^17O concentration in ROI 3 and ROI 4 (normal cartilage region) (with administration of ^17O-labeled water, calculated from average T2-weighted signal values in each ROI, 4 weeks postoperatively): showed no tendency of an increase in the ^17O concentration
